Legend:
[1] = Binding affinity to human FRalpha expressed in Chinese hamster RT16 cells assessed as cell growth inhibition after 96 hrs by CellTiter-Blue assay in presence of 200 nM folic acid
[2] = Binding affinity to human PCFT expressed in Chinese hamster R2/PCFT4 cells assessed as cell growth inhibition after 96 hrs by CellTiter-Blue assay
[3] = Binding affinity to human FRbeta expressed in Chinese hamster D4 cells assessed as cell growth inhibition after 96 hrs by CellTiter-Blue assay
[4] = Binding affinity to human RFC expressed in Chinese hamster PC43-10 cells assessed as cell growth inhibition after 96 hrs by CellTiter-Blue assay
[5] = Binding affinity to human FRbeta expressed in Chinese hamster D4 cells assessed as cell growth inhibition after 96 hrs by CellTiter-Blue assay in presence of 200 nM folic acid
[6] = Binding affinity to human FRalpha expressed in Chinese hamster RT16 cells assessed as cell growth inhibition after 96 hrs by CellTiter-Blue assay

Row | Structure (SMILES) | IC50 [1] [nM] | IC50 [2] [nM] | IC50 [3] [nM] | IC50 [4] [nM] | IC50 [5] [nM] | IC50 [6] [nM]
1 | Nc1nc2[nH]c(CCCc3cc(C(=O)N[C@@H](CCC(=O)O)C(=O)O)cs3)cc2c(=O)[nH]1 | 506 | 6.5 | 0.1 | 189 | 654 | 0.61
2 | Nc1nc(N)c2c(CCCc3cc(C(=O)N[C@@H](CCC(=O)O)C(=O)O)cs3)coc2n1 | – | > 1000 | 54 | > 1000 | > 1000 | –

Source: BindingDB's records for doi:10.1021/acs.jmedchem.5b00801 (Duquesne University, 2015)
